Experimental findings from US6297230A, “Cyanoaziridines for treating cancer” (priority 2000, dated 2001) are described below.

As usually defined, the IC50 is the concentration needed to halve the response being measured. High values mean weaker potency, low ones greater potency.

≈ marks a conversion by molar mass, not a printed value.

The subject of one experiment is A-549 lung cancer cells. Kind of experiment: In vitro antitumor activity, A-549 lung. The experiment is classed as cell-based. The conditions noted are these: Homo sapiens, A549. The source says: (§1) 1) in vitro tumor cell viability assays using MTT and SRB dye reaction endpoints.
(§2) Sulforhodamine B (SRB) Assay for Adherent Tumor Cells
(§3) Sulforhodamine B (SRB) is a protein binding aminoxanthene dye with two sulfonic acid groups. (Lillie, R. D., H. J. Conn's Biological Stains, 9th Ed., Baltimore; Williams & Wilkins, 1977.) It quantitates whole cell protein content by the intensity of dye staining and relates this to the number of viable cells. […] The SRB assay is used for cells which normally adhere to surfaces (in this case plastic culture flasks or petri dishes) as part of their requirement for growth and division in vitro. The SRB assay is currently used by the National Cancer Institute in the anticancer drug screening program. (Skehan, et al., J Natl Cancer Inst 82:1107-1112, 1990; Rubinstein, et al., J Natl Cancer Inst 82:1113-1118, 1990.) Methodologic comparisons have shown that SRB results are linear for the number of tumor cells over a 100-fold range, and for protein content determined by a modified Lowry method or Standard Bradford (Bradford, M., Anal Biochem 72:248-254, 1976) methods. […] (Lillie, R. D., H. J. Conn's Biological Stains, 9th Ed., Baltimore; Williams & Wilkins, 1977.)
(§4) Cell cultures of 10^3 -10^7 cells growing in 96-well plastic microtiter plates are fixed with 50% trichloroacetic acid (TCA) for 30 minutes at 4° C. The cells are then stained with 0.4% (w/v) sulforhodamine B (SRB) dissolved in 1% acetic acid. Unbound dye is removed by 4 washes with 1% acetic acid, and protein-bound dye is extracted with 10 mM unbuffered Tris® base [tris(hydroxymethyl)aminomethane]. The optical density (OD) of this extracted solution is measured at […] in a microtiter plate ultraviolet absorbance detector. Cell viability is expressed as percent of control by dividing the optical densities and multiplying the result by 100.
(§5) Microculture Tetrazolium (MTT) Assay for Tumor Cells
(§6) Tumors are disaggregated into single cell suspensions using mechanical, hypoosmotic, and/or enzymatic (trypsin) methods. The cells are plated at a concentration of 3-5×10^4 per […] well into plastic 96-well plates. Growth medium containing 5-10% (vol/vol) heat-inactivated fetal bovine serum and penicillin/streptomycin (both […]) are added prior to incubation at 37° C. for 6 days. Afterwards the medium containing the drug is removed, the cells are centrifuged in fresh medium or phosphate-buffered saline (pH 7.4). A tetrazolium dye, […]-2,5-diphenyl tetrazolium (MTT), is then added. (Mossman, T., J Immunol 65:55-63, 1983.) This dye forms a colored formazan product upon activation by mitochondrial reductases in viable cells. Typically, the formazan product is solubilized in acid-propanol or DMSO. The intensity of the color is proportional to viable cell numbers and this is quantitated by spectrophotometric absorbance at 570 nm on a micro ELISA plate reader. The results are calibrated in % control absorbance from untreated tumor cells. (Alley, et al., Cancer Res 48:589-601, 1988.)
(§7) Table 3 gives the potencies of the new aziridine-1-carboxamides in a panel of human and murine tumor cells in culture. The tumor cell lines in this table are selected to represent a range of histological and growth phenotypes. Their characteristics are described below.
3.0 A-549 Human Lung Cancer is an adenocarcinoma type of non-small cell lung cancer (NSCLC). It was established by Girard, et al. from a fresh tumor specimen obtained from a person with advanced lung cancer. (Girard, et al., J Natl Cancer Inst 51(5):1417-1423, 1973.) It has 5.6% plating efficiency (colony formation) on agar-coated plates, 66 modal chromosome number and grows rapidly when injected subcutaneously, forming acinar pattern tumors in immunodeficient mice. […]

The next experiment relates to MCF-7/MITOX cells. Kind of experiment: In vitro antitumor activity, MCF-7/MITOX. The experiment is classed as cell-based. As to conditions: Homo sapiens, MCF7/Mitox; MCF-7 breast, mitoxantrone resistant.
From the text: as §1, §2, §3, §4, §5, §6, §7
(§8) 1.3 MCF-7/D40 and MCF-7/MITOX cell lines were developed by chronic exposure in vitro to increasing concentrations of the DNA-intercalating antitumor agents doxorubicin and mitoxantrone, respectively. […] The MCF-7/D40 cells express the cell membrane efflux pump, P-glycoprotein and are over 40-fold resistant to doxorubicin, mitoxantrone and the vinca alkaloids, vinblastine and vincristine.

Experiment [1] has as its system MCF-7 breast cancer cells (sens.). The experiment in a line: In vitro antitumor activity, MCF-7 breast (sensitive). Format: cell-based. As to conditions: Homo sapiens, MCF7.
From the text: as §1, §2, §3, §4, §5, §6, §7
1.1 MCF-7 Breast Cancer: The parental (sensitive) MCF-7 breast cancer is an estrogen-dependent adenocarcinoma originally derived from a pleural effusion in a person with advanced metastatic breast cancer. (Soule, et al., J Natl Cancer Inst 51:1409-1416, 1973.)

Another experiment concerns tumor cell line panel. Kind of experiment: Panel of tumor cell lines in vitro. Format: cell-based, human and murine. As to conditions: all 3 MCF-7 breast lines and parental WiDr colon. On the procedure: as §1, §2, §4, §6
Table 3 gives the potencies of the new aziridine-1-carboxamides in a panel of human and murine tumor cells in culture. […]

The test system of the next experiment is WiDr colon cancer cells. Kind of experiment: In vitro antitumor activity, WiDr colon. Format: cell-based. The conditions noted are these: Homo sapiens.
From the text: as §1, §2, §3, §4, §5, §6, §7
2.1 WiDr: The adenocarcinoma cell line WiDr was originally isolated by Noguchi, et al. from a primary colon tumor specimen from a patient with advanced colon carcinoma. (Noguchi, et al, In Vitro 35(6):401-407, 1979.) The WiDr MITOX cell line was developed for mitoxantrone resistance by growth in serially elevated concentration of mitoxantrone. […] (Dalton, et al., Cancer Res 48:1882-1888, 1988.)

The subject of a further experiment is MCF-7/D40 cells. The experiment in a line: In vitro antitumor activity, MCF-7/D40. Format: cell-based. The conditions noted are these: Homo sapiens, MCF7; MCF-7 breast, D40 (40-fold doxorubicin resistant).
From the text: as §1, §2, §3, §4, §5, §6, §7, §8

In the case of `N#CC1CN1C(=O)Nc1ccccc1` (stereo not drawn) [AMP 404, 2-Cyanoaziridine-1-(N-phenyl)carboxamide], the IC50 came out at 1.6 µg/mL (≈ 8.55 µM) in the experiment with A-549 lung cancer cells; 0.8 µg/mL (≈ 4.27 µM) with MCF-7/MITOX cells; 0.5 µg/mL (≈ 2.67 µM) in experiment [1]; 0.9 µg/mL (≈ 4.81 µM) with WiDr colon cancer cells; 0.5 µg/mL (≈ 2.67 µM) with MCF-7/D40 cells. The “Tumor cell sensitivity in solid tumor lines” value (shortened to “Tumor cell sensitivity”) in the experiment with tumor cell line panel was “tumor cell sensitivity increased”.
For the compound `CCNC(=O)N1CC1C#N` (stereo not drawn) [AMP 406, 2-Cyanoaziridine-1-(N-ethyl)carboxamide], the IC50 in the experiment with A-549 lung cancer cells worked out at 2.5 µg/mL (≈ 18 µM); in the experiment with MCF-7/MITOX cells, 1.4 µg/mL (≈ 10.1 µM); in experiment [1], 4 µg/mL (≈ 28.7 µM); with WiDr colon cancer cells, 5.6 µg/mL (≈ 40.2 µM); with MCF-7/D40 cells, 2.8 µg/mL (≈ 20.1 µM).
Take `N#CC1CN1C(=O)Nc1ccc(C(F)(F)F)cc1` (stereo not drawn) [AMP 416, 2-Cyanoaziridine-1-[N-(4-trifluorophenyl)]carboxamide]: the IC50 in the experiment with A-549 lung cancer cells is 1.1 µg/mL (≈ 4.31 µM); in the experiment with MCF-7/MITOX cells, 0.3 µg/mL (≈ 1.18 µM); in experiment [1], 0.4 µg/mL (≈ 1.57 µM); with WiDr colon cancer cells, 0.3 µg/mL (≈ 1.18 µM); in the experiment on MCF-7/D40 cells, 0.4 µg/mL (≈ 1.57 µM). Further, in the experiment on tumor cell line panel, the “Tumor cell sensitivity” value was “tumor cell sensitivity increased”.
With `N#CC1CN1C(=O)Nc1ccc(F)cc1` (stereo not drawn) [AMP 415, 2-Cyanoaziridine-1-[N-(4-fluorophenyl)]carboxamide], the 50% inhibitory concentration (IC50) with A-549 lung cancer cells is 1.3 µg/mL (≈ 6.34 µM); with MCF-7/MITOX cells, 0.6 µg/mL (≈ 2.92 µM); in experiment [1], 0.4 µg/mL (≈ 1.95 µM); with WiDr colon cancer cells it was 0.4 µg/mL (≈ 1.95 µM); in the experiment on MCF-7/D40 cells, 0.5 µg/mL (≈ 2.44 µM). Besides, the “Tumor cell sensitivity” value in the experiment on tumor cell line panel is “tumor cell sensitivity increased”.
As for `CC(C)(C)NC(=O)N1CC1C#N` (stereo not drawn) [AMP 410, 2-Cyanoaziridine-1-(N-t-butyl)carboxamide], the IC50 in the experiment on A-549 lung cancer cells is 33 µg/mL (≈ 197 µM); in the experiment on MCF-7/MITOX cells, 20.1 µg/mL (≈ 120 µM); in experiment [1] it was greater than 10 µg/mL; in the experiment on WiDr colon cancer cells, 30 µg/mL (≈ 179 µM); with MCF-7/D40 cells, 31.8 µg/mL (≈ 190 µM).
As for `CNC(=O)N1CC1C#N` (stereo not drawn) [AMP 403, 2-Cyanoaziridine-1-(N-methyl)carboxamide], the half-inhibitory concentration (IC50) in the experiment on MCF-7/MITOX cells came out at 2.3 µg/mL (≈ 18.4 µM); in experiment [1] it was 3.3 µg/mL (≈ 26.4 µM); with MCF-7/D40 cells, 2.1 µg/mL (≈ 16.8 µM).
With `CCOC(=O)c1ccc(NC(=O)N2CC2C#N)cc1` (stereo not drawn) [AMP 419, 2-Cyanoaziridine-1-[N-(4-ethoxycarbonylphenyl)]carboxamide], in the experiment on A-549 lung cancer cells, the IC50 stood at 1.5 µg/mL (≈ 5.79 µM).
On to `N#CC1CN1C(=O)NC1CCCCC1` (stereo not drawn) [AMP 413, 2-Cyanoaziridine-1-(N-cyclohexyl)carboxamide], for which the IC50 in the experiment on A-549 lung cancer cells came out at 1.9 µg/mL (≈ 9.83 µM); in the experiment on MCF-7/MITOX cells, 1.9 µg/mL (≈ 9.83 µM); in experiment [1], 2.5 µg/mL (≈ 12.9 µM); in the experiment with WiDr colon cancer cells, 0.4 µg/mL (≈ 2.07 µM); in the experiment with MCF-7/D40 cells, 1.7 µg/mL (≈ 8.8 µM).
On to `N#CC1CN1C(=O)NCc1ccccc1` (stereo not drawn) [AMP 412, 2-Cyanoaziridine-1-(N-benzyl)carboxamide], for which the half-maximal inhibitory concentration (IC50) in the experiment with A-549 lung cancer cells amounted to 1.5 µg/mL (≈ 7.45 µM); in the experiment with MCF-7/MITOX cells it was 0.7 µg/mL (≈ 3.48 µM); in experiment [1], 1.5 µg/mL (≈ 7.45 µM); in the experiment on WiDr colon cancer cells it was 1.1 µg/mL (≈ 5.47 µM); in the experiment on MCF-7/D40 cells it was 1.2 µg/mL (≈ 5.96 µM).
